Each block holds one molecule with its values, some of them ahead of it.
Key:
Type in all cases: functional, cell membranes
Parameters in all cases: scale not given: the % may be the effect or the level left
[1] = target: Multidrug resistance associated protein (Homo sapiens) (UniProt Q96QA9); assay: TP_TRANSPORTER: inhibition of Etoposide glucuronide uptake (Etoposide glucuronide: 0.094 uM, TDCA: 500.0 uM) in membrane vesicles from MRP3-expressing Sf9 cells; conditions: Membrane vesicle
[2] = target: Multidrug resistance associated protein (Homo sapiens) (UniProt Q96QA9); assay: TP_TRANSPORTER: inhibition of Etoposide glucuronide uptake (Etoposide glucuronide: 0.094 uM, TDCA: 500 uM) by Taurodeoxycholate at a concentration of 500uM in membrane vesicle from MRP3-expressing Sf9 cells
[3] = target: Multidrug resistance associated protein (Homo sapiens) (UniProt Q96QA9); assay: TP_TRANSPORTER: inhibition of Etoposide glucuronide uptake (Etoposide glucuronide: 0.094 uM, TLC-S: 50.0 uM) in membrane vesicles from MRP3-expressing Sf9 cells; conditions: Membrane vesicle
[4] = target: Multidrug resistance associated protein (Homo sapiens) (UniProt Q96QA9); assay: TP_TRANSPORTER: inhibition of Etoposide glucuronide uptake (Etoposide glucuronide: 0.094 uM, TLCAS: 50 uM) by Taurolithocholate-3-sulfate at a concentration of 50uM in membrane vesicle from MRP3-expressing Sf9 cells
[5] = target: Multidrug resistance associated protein (Homo sapiens) (UniProt Q96QA9); assay: TP_TRANSPORTER: inhibition of Etoposide glucuronide uptake (Etoposide glucuronide: 0.094 uM, LC-S: 20.0 uM) in membrane vesicles from MRP3-expressing Sf9 cells; conditions: Membrane vesicle
[6] = target: Multidrug resistance associated protein (Homo sapiens) (UniProt Q96QA9); assay: TP_TRANSPORTER: inhibition of Etoposide glucuronide uptake (Etoposide glucuronide: 0.094 uM, Lithocholic acid-sulfate: 20 uM) by Lithocholate-3-sulfate at a concentration of 20uM in membrane vesicle from MRP3-expressing Sf9 cells
[7] = target: Multidrug resistance associated protein (Homo sapiens) (UniProt Q96QA9); assay: TP_TRANSPORTER: inhibition of Etoposide glucuronide uptake (Etoposide glucuronide: 0.094 uM, GLC-S: 20.0 uM) in membrane vesicles from MRP3-expressing Sf9 cells; conditions: Membrane vesicle
[8] = target: Multidrug resistance associated protein (Homo sapiens) (UniProt Q96QA9); assay: TP_TRANSPORTER: inhibition of Etoposide glucuronide uptake (Etoposide glucuronide: 0.094 uM, […] uM) by Glycolithocholate-3-sulfate at a concentration of 20uM in membrane vesicle from MRP3-expressing Sf9 cells
[9] = target: Multidrug resistance associated protein (Homo sapiens) (UniProt Q96QA9); assay: TP_TRANSPORTER: inhibition of Etoposide glucuronide uptake (Etoposide glucuronide: 0.094 uM, GC: 500 uM) by Glycocholate at a concentration of 500uM in membrane vesicle from MRP3-expressing Sf9 cells
[10] = target: Multidrug resistance associated protein (Homo sapiens) (UniProt Q96QA9); assay: TP_TRANSPORTER: inhibition of Etoposide glucuronide uptake (Etoposide glucuronide: 0.094 uM, GC: 500.0 uM) in membrane vesicles from MRP3-expressing Sf9 cells; conditions: Membrane vesicle
[11] = target: Multidrug resistance associated protein (Homo sapiens) (UniProt Q96QA9); assay: TP_TRANSPORTER: inhibition of Etoposide glucuronide uptake (Etoposide glucuronide: 0.094 uM, MK-571: 20.0 uM) in membrane vesicles from MRP3-expressing Sf9 cells; conditions: Membrane vesicle
[12] = target: Multidrug resistance associated protein (Homo sapiens) (UniProt Q96QA9); assay: TP_TRANSPORTER: inhibition of Etoposide glucuronide uptake (Etoposide glucuronide: 0.094 uM, MK571: 20 uM) by MK-571 at a concentration of 20uM in membrane vesicle from MRP3-expressing Sf9 cells
[13] = target: Multidrug resistance associated protein (Homo sapiens) (UniProt Q96QA9); assay: TP_TRANSPORTER: inhibition of Etoposide glucuronide uptake (Etoposide glucuronide: 0.094 uM, TCDC: 500.0 uM) in membrane vesicles from MRP3-expressing Sf9 cells; conditions: Membrane vesicle
[14] = target: Multidrug resistance associated protein (Homo sapiens) (UniProt Q96QA9); assay: TP_TRANSPORTER: inhibition of Etoposide glucuronide uptake (Etoposide glucuronide: 0.094 uM, TCDC: 500 uM) by Taurochenodeoxycholate at a concentration of 500uM in membrane vesicle from MRP3-expressing Sf9 cells

Multidrug resistance associated protein (Homo sapiens), sequence (Q96QA9 as listed by the source): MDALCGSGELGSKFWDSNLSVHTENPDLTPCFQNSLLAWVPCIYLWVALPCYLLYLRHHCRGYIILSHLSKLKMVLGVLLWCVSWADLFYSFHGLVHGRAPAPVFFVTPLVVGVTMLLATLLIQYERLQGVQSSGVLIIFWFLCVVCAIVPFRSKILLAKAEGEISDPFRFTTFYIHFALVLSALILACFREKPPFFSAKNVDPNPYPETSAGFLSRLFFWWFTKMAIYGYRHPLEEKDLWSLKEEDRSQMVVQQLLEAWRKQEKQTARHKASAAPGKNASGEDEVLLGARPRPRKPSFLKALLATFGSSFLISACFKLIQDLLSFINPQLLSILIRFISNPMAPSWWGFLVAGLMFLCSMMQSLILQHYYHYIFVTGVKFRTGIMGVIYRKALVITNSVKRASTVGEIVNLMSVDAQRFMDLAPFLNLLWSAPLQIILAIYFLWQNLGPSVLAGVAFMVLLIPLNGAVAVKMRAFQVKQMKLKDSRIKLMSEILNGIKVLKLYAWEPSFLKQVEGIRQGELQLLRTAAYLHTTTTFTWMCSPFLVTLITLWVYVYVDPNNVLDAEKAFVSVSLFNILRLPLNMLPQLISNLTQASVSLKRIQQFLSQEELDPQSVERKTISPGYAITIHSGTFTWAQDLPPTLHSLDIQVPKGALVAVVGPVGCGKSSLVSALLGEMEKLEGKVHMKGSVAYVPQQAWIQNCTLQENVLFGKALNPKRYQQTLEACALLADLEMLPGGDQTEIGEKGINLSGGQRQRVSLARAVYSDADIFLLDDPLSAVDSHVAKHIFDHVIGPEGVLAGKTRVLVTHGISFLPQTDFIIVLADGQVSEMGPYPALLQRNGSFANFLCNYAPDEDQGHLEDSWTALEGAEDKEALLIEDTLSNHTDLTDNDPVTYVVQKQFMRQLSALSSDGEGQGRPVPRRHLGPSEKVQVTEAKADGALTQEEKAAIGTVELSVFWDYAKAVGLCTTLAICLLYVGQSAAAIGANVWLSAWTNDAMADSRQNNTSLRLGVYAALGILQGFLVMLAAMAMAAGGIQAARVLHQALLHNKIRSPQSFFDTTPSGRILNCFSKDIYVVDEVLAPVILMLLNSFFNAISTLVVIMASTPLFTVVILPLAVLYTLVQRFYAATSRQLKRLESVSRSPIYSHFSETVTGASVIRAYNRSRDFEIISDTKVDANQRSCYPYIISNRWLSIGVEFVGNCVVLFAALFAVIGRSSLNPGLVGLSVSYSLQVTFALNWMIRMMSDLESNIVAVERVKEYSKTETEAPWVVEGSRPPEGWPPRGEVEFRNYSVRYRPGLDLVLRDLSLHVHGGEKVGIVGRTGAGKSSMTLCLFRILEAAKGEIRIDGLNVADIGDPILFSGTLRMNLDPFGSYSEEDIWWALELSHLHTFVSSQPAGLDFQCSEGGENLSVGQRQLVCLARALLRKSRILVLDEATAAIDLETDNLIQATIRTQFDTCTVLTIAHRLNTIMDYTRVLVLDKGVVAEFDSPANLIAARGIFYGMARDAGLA

SMILES: C[C@H](CCC(=O)NCCS(=O)(=O)O)C1CC[C@H]2[C@@H]3CC[C@@H]4C[C@H](OS(=O)(=O)O)CC[C@]4(C)[C@H]3CC[C@]12C (some centres undefined)
- Activity [3]: 8%
- Activity [4]: 8%

SMILES: C[C@H](CCC(=O)O)[C@H]1CC[C@H]2[C@@H]3CC[C@@H]4C[C@H](OS(=O)(=O)O)CC[C@]4(C)[C@H]3CC[C@]12C
- Activity [5]: 24%
- Activity [6]: 24%

SMILES: C[C@H](CCC(=O)NCC(=O)O)[C@H]1CC[C@H]2[C@@H]3CC[C@@H]4C[C@H](OS(=O)(=O)O)CC[C@]4(C)[C@H]3CC[C@]12C
- Activity [7]: 29%
- Activity [8]: 29%

Now from value to molecule:

- Activity [1]: 9%
- Activity [2]: 9%
SMILES: C[C@H](CCC(=O)NCCS(=O)(=O)O)[C@H]1CC[C@H]2[C@@H]3CC[C@@H]4C[C@H](O)CC[C@]4(C)[C@H]3C[C@H](O)[C@]12C

- Activity [9]: 30%
- Activity [10]: 30%
SMILES: C[C@H](CCC(=O)NCC(=O)O)[C@H]1CC[C@H]2[C@@H]3[C@H](O)C[C@@H]4C[C@H](O)CC[C@]4(C)[C@H]3C[C@H](O)[C@]12C

- Activity [11]: 40%
- Activity [12]: 40%
SMILES: CN(C)C(=O)CCSC(SCCC(=O)O)c1cccc(/C=C/c2ccc3ccc(Cl)cc3n2)c1 (centres undefined)

- Activity [13]: 6%
- Activity [14]: 6%
SMILES: C[C@H](CCC(=O)NCCS(=O)(=O)O)[C@H]1CC[C@H]2[C@@H]3[C@H](O)C[C@@H]4C[C@H](O)CC[C@]4(C)[C@H]3CC[C@]12C

— ChEMBL document CHEMBL2074306, “Transport of bile acids in multidrug-resistance-protein 3-overexpressing cells co-transfected with the ileal Na+-dependent bile-acid transporter” (Biochem J, 2003)
